The text below walks through data of BindingDB's records for doi:10.1016/0960-894X(95)00044-T (1995).

The target of this test is DNA. Put plainly: Inhibition of calf thymus DNA/ethidium bromide complex formation.

A value given as a limit tells only on which side of the number the result lay.

A word on the EC50: it is the concentration at which the effect is half-maximal. Take `Cc1cc(-c2c(F)cc3c4nn([C@H]5CC[C@@H](N)CC5)c(=O)c-4cn(C4CC4)c3c2F)cc(C)n1` [2-(4-Amino-cyclohexyl)-5-cyclopropyl-7-(2,6-dimethyl-pyridin-4-yl)-6,8-difluoro-2,5-dihydro-pyrazolo[4,3-c]quinolin-3-one]: the EC50 is above 50 µM. In turn, `Cc1cc(-c2c(F)cc3c4nn(CCCN(C)C)c(=O)c-4cn(C4CC4)c3c2F)cc(C)n1` [5-Cyclopropyl-2-(3-dimethylamino-propyl)-7-(2,6-dimethyl-pyridin-4-yl)-6,8-difluoro-2,5-dihydro-pyrazolo[4,3-c]quinolin-3-one] came in with a half-maximal effective concentration (EC50) above 50 µM. Regarding `Cc1cc(-c2c(F)cc3c4nn(C)c(=O)c-4cn(C4CC4)c3c2F)cc(C)n1` [5-Cyclopropyl-7-(2,6-dimethyl-pyridin-4-yl)-6,8-difluoro-2-methyl-2,5-dihydro-pyrazolo[4,3-c]quinolin-3-one], the EC50 is above 60 µM. The same measure for `Cc1cc(-c2c(F)cc3c4nn([C@H]5CC[C@H](N(C)C)CC5)c(=O)c-4cn(C4CC4)c3c2F)cc(C)n1` [5-Cyclopropyl-2-(4-dimethylamino-cyclohexyl)-7-(2,6-dimethyl-pyridin-4-yl)-6,8-difluoro-2,5-dihydro-pyrazolo[4,3-c]quinolin-3-one]: above 50 µM. The same measure for `Cc1cc(-c2c(F)cc3c4nn(C5CCOCC5)c(=O)c-4cn(C4CC4)c3c2F)cc(C)n1` [5-Cyclopropyl-7-(2,6-dimethyl-pyridin-4-yl)-6,8-difluoro-2-(tetrahydro-pyran-4-yl)-2,5-dihydro-pyrazolo[4,3-c]quinolin-3-one]: above 50 µM; for `Cc1cc(-c2c(F)cc3c4nn(C5CCCCC5)c(=O)c-4cn(C4CC4)c3c2F)cc(C)n1` [2-Cyclohexyl-5-cyclopropyl-7-(2,6-dimethyl-pyridin-4-yl)-6,8-difluoro-2,5-dihydro-pyrazolo[4,3-c]quinolin-3-one]: above 50 µM; for `Cc1cc(-c2c(F)cc3c4nn([C@H]5CC[C@@H](N(C)C)CC5)c(=O)c-4cn(C4CC4)c3c2F)cc(C)n1` [5-Cyclopropyl-2-(4-dimethylamino-cyclohexyl)-7-(2,6-dimethyl-pyridin-4-yl)-6,8-difluoro-2,5-dihydro-pyrazolo[4,3-c]quinolin-3-one]: above 50 µM.

For `Cc1cc(-c2c(F)cc3c4nn([C@H]5CC[C@H](N)CC5)c(=O)c-4cn(C4CC4)c3c2F)cc(C)n1` [2-(4-Amino-cyclohexyl)-5-cyclopropyl-7-(2,6-dimethyl-pyridin-4-yl)-6,8-difluoro-2,5-dihydro-pyrazolo[4,3-c]quinolin-3-one], the EC50 is above 50 µM. In turn, `Cc1cc(-c2c(F)cc3c4n[nH]c(=O)c-4cn(C4CC4)c3c2F)cc(C)n1` [5-Cyclopropyl-7-(2,6-dimethyl-pyridin-4-yl)-6,8-difluoro-2,5-dihydro-pyrazolo[4,3-c]quinolin-3-one] returned a half-maximal effective concentration (EC50) of 27 µM. The same measure for `Cc1cc(-c2c(F)cc3c(=O)c(C(=O)O)cn(C4CC4)c3c2F)cc(C)n1` [WIN-57294]: above 54 µM; for `Cc1cc(-c2c(F)cc3c4nn(CCO)c(=O)c-4cn(C4CC4)c3c2F)cc(C)n1` [5-Cyclopropyl-7-(2,6-dimethyl-pyridin-4-yl)-6,8-difluoro-2-(2-hydroxy-ethyl)-2,5-dihydro-pyrazolo[4,3-c]quinolin-3-one]: above 60 µM; for `CCOC(=O)Cn1nc2c3cc(F)c(-c4cc(C)nc(C)c4)c(F)c3n(C3CC3)cc-2c1=O` [[5-Cyclopropyl-7-(2,6-dimethyl-pyridin-4-yl)-6,8-difluoro-3-oxo-3,5-dihydro-pyrazolo[4,3-c]quinolin-2-yl]-acetic acid ethyl ester]: above 60 µM. `Cc1cc(-c2c(F)cc3c4nn(CCN(C)C)c(=O)c-4cn(C4CC4)c3c2F)cc(C)n1` [5-Cyclopropyl-2-(2-dimethylamino-ethyl)-7-(2,6-dimethyl-pyridin-4-yl)-6,8-difluoro-2,5-dihydro-pyrazolo[4,3-c]quinolin-3-one] displayed a half-maximal effective concentration (EC50) of 0.93 µM. The same measure for `Cc1cc(-c2c(F)cc3c(=O)ccn(C4CC4)c3c2F)cc(C)n1` [1-Cyclopropyl-7-(2,6-dimethyl-pyridin-4-yl)-6,8-difluoro-1H-quinolin-4-one]: above 55 µM; for `Cc1cc(-c2c(F)cc3c4nn(C5CCC(C)CC5)c(=O)c-4cn(C4CC4)c3c2F)cc(C)n1` (stereo unspecified) [5-Cyclopropyl-7-(2,6-dimethyl-pyridin-4-yl)-6,8-difluoro-2-(4-methyl-cyclohexyl)-2,5-dihydro-pyrazolo[4,3-c]quinolin-3-one]: above 50 µM.

`CC(=O)N[C@H]1CC[C@@H](n2nc3c4cc(F)c(-c5cc(C)nc(C)c5)c(F)c4n(C4CC4)cc-3c2=O)CC1` [N-{4-[5-Cyclopropyl-7-(2,6-dimethyl-pyridin-4-yl)-6,8-difluoro-3-oxo-3,5-dihydro-pyrazolo[4,3-c]quinolin-2-yl]-cyclohexyl}-acetamide] came in with an EC50 above 52 µM. Regarding `Cc1cc(-c2c(F)cc3c4nn(CCNCCO)c(=O)c-4cn(C4CC4)c3c2F)cc(C)n1` [5-Cyclopropyl-7-(2,6-dimethyl-pyridin-4-yl)-6,8-difluoro-2-[2-(2-hydroxy-ethylamino)-ethyl]-2,5-dihydro-pyrazolo[4,3-c]quinolin-3-one], the midpoint of the response, the EC50, lay at 1.2 µM.

The compound `Cc1cc(-c2c(F)cc3c4nn(C5CCN(C)CC5)c(=O)c-4cn(C4CC4)c3c2F)cc(C)n1` [5-Cyclopropyl-7-(2,6-dimethyl-pyridin-4-yl)-6,8-difluoro-2-(1-methyl-piperidin-4-yl)-2,5-dihydro-pyrazolo[4,3-c]quinolin-3-one] showed a half-maximal effective concentration (EC50) above 50 µM.

As for `Cc1cc(-c2c(F)cc3c4nn(CC(=O)O)c(=O)c-4cn(C4CC4)c3c2F)cc(C)n1` [[5-Cyclopropyl-7-(2,6-dimethyl-pyridin-4-yl)-6,8-difluoro-3-oxo-3,5-dihydro-pyrazolo[4,3-c]quinolin-2-yl]-acetic acid], the EC50 is above 60 µM.

The compound `Cc1cc(-c2c(F)cc3c4nn(-c5ccccc5)c(=O)c-4cn(C4CC4)c3c2F)cc(C)n1` [5-Cyclopropyl-7-(2,6-dimethyl-pyridin-4-yl)-6,8-difluoro-2-phenyl-2,5-dihydro-pyrazolo[4,3-c]quinolin-3-one] had an EC50 above 60 µM. The same measure for `CC(=O)N[C@H]1CC[C@H](n2nc3c4cc(F)c(-c5cc(C)nc(C)c5)c(F)c4n(C4CC4)cc-3c2=O)CC1` [N-{4-[5-Cyclopropyl-7-(2,6-dimethyl-pyridin-4-yl)-6,8-difluoro-3-oxo-3,5-dihydro-pyrazolo[4,3-c]quinolin-2-yl]-cyclohexyl}-acetamide]: above 51 µM.
